A short description of this data set: eutectic enantioexcess (eeeu) / eutectic solubility of (S)-enantiomer form with corresponding racemic compound. The data set is classed as physicochemical. As to the method: The majority of racemic mixtures preferentially form racemic compounds (reference Jacques book). The saturation solubility of a racemic compound and the pure enantiomer in the presence of a solvent is known as the eutectic point. The ratio of the solubility, i.e., the “eutectic enantioexcess” (eeeu), is a useful parameter to assess the chiral upgrade capability for a given system. The eeeu is calculated from the relative solubility of the R- and S-enantiomers: eeeu=([major]−[minor])/([major]+[minor]), where [major] is the solubility of the major enantiomer at the eutectic, and [minor] is the solubility of the minor enantiomer at the eutectic. […] The eeeu can be dependent on temperature in all cases. […]
Physical characterization confirmed that the HCl salt of the racemic compound was a hydrate, which was determined to be a thermodynamically stable crystal form. […] The quantities of solvent and equipment capacity needed to provide chiral upgrade would be impractical and uneconomical. For instance, to upgrade from 90% ee to 98% ee, it was calculated to require 200 L solvent per kg starting material.
From this eeeu, it was calculated that achieving an upgrade from 90% ee to 98% ee would require 46 L solvent per kg starting material which, while an improvement, is still undesirable. […]

The structures appear in SMILES notation. Counter-ions that a name gives are not always drawn.

Take `O.O=C1CC[C@H](N2Cc3c(OCc4ccc(CN5CCOCC5)cc4)cccc3C2=O)C(=O)N1` [(S)-3-(4-((4-(morpholinomethyl)benzyl)oxy)-1-oxoisoindolin-2-yl)piperidine-2,6-dione hydrate]: the “eutectic enantioexcess (eeeu)” value (hydrate with corresponding hydrate racemic compound, 22° C.) is listed as 89.2%.
Take `O=C1CC[C@H](N2Cc3c(OCc4ccc(CN5CCOCC5)cc4)cccc3C2=O)C(=O)N1` [(S)-3-(4-((4-(morpholinomethyl)benzyl)oxy)-1-oxoisoindolin-2-yl)piperidine-2,6-dione hydrochloride]: the absolute solubility result is “quite low”.

The record behind these values is patent publication US9309220B2, “Processes for the preparation of (S)-3-(4- (4-(morpholinomethyl)benzyl)oxy)-1-oxoisoindolin-2-yl)piperidine-2,6-dione and pharmaceutically acceptable forms thereof” (Celgene Corporation, priority 2012, dated 2016).
